Drawing on patent US9975878B2, “Substituted triazine BMI-1 inhibitors” (PTC Therapeutics, Inc., priority 2013, dated 2018), this text covers EC50 for 29 compounds.

For the assay, the system named is Bmi-1 protein. Briefly: Sandwich ELISA Assay: Bmi-1 protein level in HT-1080 cells treated with test compounds. Type of assay: cell-based. Here is the method: Cell Seeding and Compound Treatment (Day 1):
HT-1080 cells were seeded at 8000 cells/well (50 μL) in 96-well tissue culture plates. After the cells became adherent (3-4 hours), 2× diluted stocks of test compounds in 50 μL DMEM containing 1% DMSO (final DMSO concentration was 0.5%) were added and the plates were incubated at 37° C. under 5% CO2 for 40-48 hours.
ELISA Plate First Antibody Preparation (Day 2):
The First Antibody (Millipore Mouse, monoclonal to mouse Bmi-1, clone F6, catalog #05-637) diluted to 2 μg/mL in PBS was added (100 μL) to each well of a Nunc MaxiSorp 96-well ELISA plate. The plate was covered with a plate seal and allowed to stand overnight.
Cell Lysate Preparation (Day 3):
Fresh Lysis buffer (1×) was prepared on the day of the assay as follows: 1 mM EDTA, 150 mM NaCl, 0.5% Triton-X 100, 10 mM NaF, 20 mM B-Glycerophosphate, 1 mM DTT (in PBS, pH 7.2-7.4) and HALT protease inhibitor cocktail (1×) (Pierce #78410).
Lysis Buffer (1×, 40 μL) was added to each well and the plate was shaken for 5-10 minutes on an orbital shaker to allow cell lysis, then diluent (1% BSA in PBS in 0.5% NP40) (100 μL) was added to each well.
A standard curve was prepared at the following Bmi-1 concentrations: 8000, 4000, 2000, 1000, 500, 250, 125 and 0 pg/mL. The Bmi-1 Recombinant Protein Standard (Novus Biologicals PCGF4 Recombinant Protein (P01), catalog # H00000648-P01) used to prepare the standard curve was stored at −80° C. On first thaw, the Recombinant Protein Standard was diluted to 10 μg/μL in Blocking Buffer (1% BSA in PBS; BSA: Fisher Scientific Catalog #1600-100). Aliquots were taken and refrozen at −80° C. The aliquots may be kept at 4° C. and reused after first thaw, but only within 1-2 weeks. The Recombinant Protein Standard contains a GST-fusion tag that appears at approximately 70 Kda on Western Blot.
The prepared ELISA plate was washed 3× with Wash Buffer (0.05% Tween-20 in PBS). The final wash was removed from the plate and the plate was blotted dry. Blocking Buffer (300 μL) (1% BSA in PBS) was added to each well. The plate was covered with a plate seal and incubated at room temperature for 1 hour. The blocked plate was washed 3× with Wash Buffer, then the final wash was removed and the plate was blotted dry. The previously prepared samples and standards were added (100 μL/well) and the plate was covered with a plate seal and incubated at 4° C. overnight.
The prepared ELISA plate was removed from incubation and allowed to stand at room temperature for 30 minutes, then washed and blotted dry. The Second Antibody (Cell Signaling Rabbit anti-Bmi-1, Cat# 2830) diluted to 1:600 in Blocking Buffer was added (100 μL) to each well, except as needed for background control wells. The plate was covered with a plate seal and incubated for 1.5 hrs at room temperature.
The ELISA plate was washed and blotted dry as previously described. The Third Antibody (Cell Signaling HRP conjugated anti-rabbit IgG (CellSignaling, Cat#:7074) diluted to 1:300 in Blocking Buffer was added (100 μL) to each well, except as needed for background control wells. The plate was incubated for 1 hr at room temperature.
The plate was washed and blotted dry, then a previously prepared TMB substrate (TMB substrate kit, Pierce catalog #34021) (prepared by mixing kit reagents 1:1) (100 μL) was added per well. The plate was incubated for 20-30 minutes at room temperature in the dark, then Stop Solution (2 M sulfuric acid in water) (50 μL) was added per well. The plates were read at OD450 (experimental) and OD570 (reference).
(An ELISA detects its analyte on a solid surface through an enzyme-linked reagent.)
As a reminder, the EC50 is the concentration giving half of the maximal effect. A high value points to a need for much substance. Take `FC(F)(F)c1ccc(Nc2cnnc(-n3c(C4CC4)nc4ccccc43)n2)cc1` [Cpd 101, 3-(2-cyclopropyl-1H-benzimidazol-1-yl)-N-[4-(trifluoromethyl)phenyl]-1,2,4-triazin-5-amine]: the EC50 lay within 10 to 100 nM.

Regarding `Cc1nc2ccc(F)cc2n1-c1nc(N)nc(Nc2ccc(Cl)c(F)c2)n1` [Cpd 201, N-(4-chloro-3-fluorophenyl)-6-(6-fluoro-2-methyl-1H-benzimidazol-1-yl)-1,3,5-triazine-2,4-diamine], the EC50 was in the range of 100 to 3000 nM.

Regarding `Cc1nc2ncc(Br)cc2n1-c1nc(NCCO)nc(Nc2ccc(C(F)(F)F)cc2)n1` [Cpd 34, 2-{[4-(6-bromo-2-methyl-1H-imidazo[4,5-b]pyridin-1-yl)-6-{[4-(trifluoromethyl)phenyl]amino}-1,3,5-triazin-2-yl]amino}ethanol], the EC50 was 100 to 3000 nM.

In turn, `Nc1nc(Nc2ccc(Cl)cc2)nc(-n2c(C3CC3)nc3ccc(F)cc32)n1` [Cpd 178, N-(4-chlorophenyl)-6-(2-cyclopropyl-6-fluoro-1H-benzimidazol-1-yl)-1,3,5-triazine-2,4-diamine] returned an EC50 of 10 to 100 nM.

Compound `Nc1nc(Nc2ccc(OC(F)F)cc2)nc(-n2c(C3CC3)nc3ccc(F)cc32)n1` [Cpd 63, 6-(2-cyclopropyl-6-fluoro-1H-benzimidazol-1-yl)-N-[4-(difluoromethoxy)phenyl]-1,3,5-triazine-2,4-diamine] came in with an EC50 of 10 to 100 nM.

Take `CCc1nc2c(F)cccc2n1-c1nc(N)nc(Nc2ccc(SC)cc2)n1` [Cpd 227, 6-(2-ethyl-4-fluoro-1H-benzimidazol-1-yl)-N-[4-(methylsulfanyl)phenyl]-1,3,5-triazine-2,4-diamine]: the EC50 is 1 to 10 nM.

The compound `CCc1nc2c(F)cccc2n1-c1nc(N)nc(Nc2ccc(Cl)cc2)n1` [Cpd 214, N-(4-chlorophenyl)-6-(2-ethyl-4-fluoro-1H-benzimidazol-1-yl)-1,3,5-triazine-2,4-diamine] gave an EC50 of 10 to 100 nM.

`CCc1nc2c(F)cc(F)cc2n1-c1nc(N)nc(Nc2ccc(Br)cc2)n1` [Cpd 209, N-(4-bromophenyl)-6-(2-ethyl-4,6-difluoro-1H-benzimidazol-1-yl)-1,3,5-triazine-2,4-diamine] registered an EC50 of 1 to 10 nM.

On to `Cc1ccc(Nc2nncc(-n3c(C)nc4ccccc43)n2)cc1` [Cpd 217, 5-(2-methyl-1H-benzimidazol-1-yl)-N-(4-methylphenyl)-1,2,4-triazin-3-amine], for which the EC50 is 1 to 10 nM.

Consider `COc1ccc(Nc2nc(N)nc(-n3c(C4CC4)nc4c(F)cccc43)n2)cc1` [Cpd 182, 6-(2-cyclopropyl-4-fluoro-1H-benzimidazol-1-yl)-N-(4-methoxyphenyl)-1,3,5-triazine-2,4-diamine], for which the EC50 was in the range of 1 to 10 nM.

In the case of `Nc1nc(Nc2ccc(Br)cc2)nc(-n2c(C3CC3)nc3cc(F)ccc32)n1` [Cpd 222, N-(4-bromophenyl)-6-(2-cyclopropyl-5-fluoro-1H-benzimidazol-1-yl)-1,3,5-triazine-2,4-diamine], the EC50 fell in the range of 10 to 100 nM.

Turning to `Nc1nc(Nc2ccc(C(F)(F)F)cc2)nc(-n2c(C3CC3)nc3ccccc32)n1` [Cpd 42, 6-(2-cyclopropyl-1H-benzimidazol-1-yl)-N-[4-(trifluoromethyl)phenyl]-1,3,5-triazine-2,4-diamine], the EC50 was 10 to 100 nM.

As for `CCCc1nc2ccccc2n1-c1nc(N)nc(Nc2ccc(C(F)(F)F)cc2)n1` [Cpd 127, 6-(2-propyl-1H-benzimidazol-1-yl)-N-[4-(trifluoromethyl)phenyl]-1,3,5-triazine-2,4-diamine], the EC50 lay within 100 to 3000 nM.

The compound `Cc1nc2ccccc2n1-c1nc(N)nc(Nc2ccc3[nH]ccc3c2)n1` [Cpd 7, N-(1H-indol-5-yl)-6-(2-methyl-1H-benzimidazol-1-yl)-1,3,5-triazine-2,4-diamine] showed an EC50 of 1 to 10 nM.

Consider `Fc1ccc2nc(C3CC3)n(-c3nncc(Nc4ccc(C(F)(F)F)cc4)n3)c2c1` [Cpd 132, 3-(2-cyclopropyl-6-fluoro-1H-benzimidazol-1-yl)-N-[4-(trifluoromethyl)phenyl]-1,2,4-triazin-5-amine], for which the EC50 is 10 to 100 nM.

For the compound `Cc1nc2c(F)cc(F)cc2n1-c1nc(N)nc(Nc2ccc(C(F)(F)F)cc2)n1` [Cpd 46, 6-(4,6-difluoro-2-methyl-1H-benzimidazol-1-yl)-N-[4-(trifluoromethyl)phenyl]-1,3,5-triazine-2,4-diamine], the EC50 lay within 100 to 3000 nM.

Compound `Nc1nc(Nc2ccc(C(F)(F)F)cc2)nc(-n2c(C3CC3)nc3ncc(F)cc32)n1` [Cpd 36, 6-(2-cyclopropyl-6-fluoro-1H-imidazo[4,5-b]pyridin-1-yl)-N-[4-(trifluoromethyl)phenyl]-1,3,5-triazine-2,4-diamine] returned an EC50 of 100 to 3000 nM.

Regarding `CCc1nc2cc(F)ccc2n1-c1nc(N)nc(Nc2ccc(Br)cc2)n1` [Cpd 221, N-(4-bromophenyl)-6-(2-ethyl-5-fluoro-1H-benzimidazol-1-yl)-1,3,5-triazine-2,4-diamine], the 50% effective concentration (EC50) was 10 to 100 nM.

For `Nc1nc(Nc2ccc(Cl)cc2)nc(-n2c(C3CC3)nc3ccccc32)n1` [Cpd 157, N-(4-chlorophenyl)-6-(2-cyclopropyl-1H-benzimidazol-1-yl)-1,3,5-triazine-2,4-diamine], the EC50 is 10 to 100 nM.

`Cc1ccc(Nc2nc(N)nc(-n3c(C)nc4cc(F)c(F)cc43)n2)cc1` [Cpd 195, 6-(5,6-difluoro-2-methyl-1H-benzimidazol-1-yl)-N-(4-methylphenyl)-1,3,5-triazine-2,4-diamine]: the half-maximal effective concentration (EC50) was 10 to 100 nM.

`Nc1nc(Nc2ccc(Br)cc2)nc(-n2c(C3CC3)nc3ccccc32)n1` [Cpd 224, N-(4-bromophenyl)-6-(2-cyclopropyl-1H-benzimidazol-1-yl)-1,3,5-triazine-2,4-diamine]: the EC50 lay in the range of 1 to 10 nM.

As to `CCc1nc2cc(F)ccc2n1-c1nc(N)nc(Nc2ccc(C)cc2)n1` [Cpd 174, 6-(2-ethyl-5-fluoro-1H-benzimidazol-1-yl)-N-(4-methylphenyl)-1,3,5-triazine-2,4-diamine], the concentration giving a half-maximal response (EC50) was 10 to 100 nM.

Compound `Cc1cccc(Nc2nc(N)nc(-n3c(C)nc4ccccc43)n2)c1` [Cpd 149, 6-(2-methyl-1H-benzimidazol-1-yl)-N-(3-methylphenyl)-1,3,5-triazine-2,4-diamine] displayed an EC50 of 100 to 3000 nM.

The compound `Cc1nc2cc(F)ccc2n1-c1nc(N)nc(Nc2ccc(OC(F)F)c(F)c2)n1` [Cpd 54, N-[4-(difluoromethoxy)-3-fluorophenyl]-6-(5-fluoro-2-methyl-1H-benzimidazol-1-yl)-1,3,5-triazine-2,4-diamine] had an EC50 of 100 to 3000 nM.

`CCc1nc2cc(F)c(F)cc2n1-c1nc(N)nc(Nc2ccc(C(F)(F)F)cc2)n1` [Cpd 116, 6-(2-ethyl-5,6-difluoro-1H-benzimidazol-1-yl)-N-[4-(trifluoromethyl)phenyl]-1,3,5-triazine-2,4-diamine] had an EC50 of 100 to 3000 nM.

Take `CCc1nc2cc(F)ccc2n1-c1nc(N)nc(Nc2ccc(C(F)(F)F)cc2)n1` [Cpd 58, 6-(2-ethyl-5-fluoro-1H-benzimidazol-1-yl)-N-[4-(trifluoromethyl)phenyl]-1,3,5-triazine-2,4-diamine]: the EC50 lay in the range of 10 to 100 nM.

Compound `COc1ccc(Nc2cnnc(-n3c(C4CC4)nc4ccccc43)n2)cc1` [Cpd 146, 3-(2-cyclopropyl-1H-benzimidazol-1-yl)-N-(4-methoxyphenyl)-1,2,4-triazin-5-amine] yielded an EC50 of 1 to 10 nM.

Consider `COc1ccc(Nc2nncc(-n3c(C)nc4ccccc43)n2)cc1` [Cpd 204, N-(4-methoxyphenyl)-5-(2-methyl-1H-benzimidazol-1-yl)-1,2,4-triazin-3-amine], for which the EC50 lay within 1 to 10 nM.

On to `CCc1nc2ccccc2n1-c1nc(N)nc(Nc2ccc(C(F)(F)F)cc2)n1` [Cpd 30, 6-(2-ethyl-1H-benzimidazol-1-yl)-N-[4-(trifluoromethyl)phenyl]-1,3,5-triazine-2,4-diamine], for which the EC50 is 10 to 100 nM.
